# Data published in US20210236698A1, “ANTIMICROBIAL LOCKING SOLUTIONS COMPRISING TAURINAMIDE DERIVATIVES AND BIOLOGICALLY ACCEPTABLE SALTS AND ACIDS, WITH THE ADDITION OF SMALL CONCENTRATIONS OF HEPARIN” (ND Partners, LLC, priority 2004, published 2021).
# Assays:
# [1] = tested on: red cells; type: cell-based
# Text: The trial results by Dr Allon were examined by researchers in a group of experiments at the Naval Blood Laboratory and Boston University Medical School. […] However, the researchers were not able to determine exactly how their results were relevant to the findings in the University of Alabama clinical trial.
# [2] = Biocidal effectiveness of taurolidine solution with citrate/citric acid pH adjustment; details: citrates and citric acid, pH of end solution in the vicinity of 5.2 to 6.5
# Text: The concentration of taurolidine in such solutions is preferably in the range of from about 0.4 to about 5% by weight, depending upon the solubility of the compound. […] The approach creates a buffer system of citric acid/sodium citrate by adjustment of pH using sodium hydroxide. This buffer system also resists changes in the pH due to the oxidation of formaldehyde to formic acid.
# [3] = Long term stability tests of taurolidine in solution; type: physicochemical; details: citric acid and sodium citrate in combination, versus solution prepared with PVP
# Text: In addition, citric acid is a known antioxidant. […] The composition employed in the practice of the present invention preferably also contains a pharmacologically acceptable carrier solution, such as, water, Ringer's solution, or saline.
Compound,changes to blood in contact with solution [1],biocidal effectiveness [2],precipitation of solid taurolidine and reaction products from solution [3]
heparin,did not happen,,
O=S1(=O)CCN(CN2CCS(=O)(=O)NC2)CN1 [taurolidine],morphological changes to red cells,substantially increases,prevents or severely slows down
